The test system of the assay is washed human platelets, TRAP-induced aggregation. As to the kind of experiment: In vitro test for inhibition of human platelet aggregation induced by TRAP. The class given is cell-based. As to conditions: 5 μM TRAP; washed human platelets; mean of n experiments; entries marked b measured with a Chronolog aggregometer, others with micro plate reader; read-out: Inhibition of TRAP (5 μM)-induced human platelet aggregation (IC50), mean. The text has this: I.b. In vitro Test for Inhibition of Human Platelet Aggregation Induced by TRAP
Introduction: Addition of trombin receptor agonist peptide (TRAP) to washed human platelets (WPL) in vitro induces platelet aggregation. This aggregation can be determined by measuring the optical density of the WPL. The in vitro test described here is used to analyze the activity of a test compound to inhibit TRAP-induced aggregation of human platelets. A micro plate reader is used to measure the activity of several compounds simultaneously.
An alternative vehicle is 0.9% NaCl in MQ H2O. The compound solution (either in MQ H2O or 0.9% NaCl in MQ H2O) is further diluted in 0.9% NaCl in MQ H2O.
Free-flowing blood (at least 100 mL) is taken from a healthy volunteer and collected in 0.1 volume 3.8% sodium citrate. 2H2O in MQ H2O (w/v). The final concentration is 0.38% sodium citrate. The citrated blood is centrifuged at 1,600 N/kg (160 g) in Hettich Rotanta/AP centrifuge (750 rpm) at RT. After 15 min, centrifugation is discontinued with the brake turned off and the supernatant (=PRP) is collected. • 2. Washed platelets (WPL):
After adding freshly made 1 μL PGI2 solution per ml PRP, the suspension is centrifuged at 13,500 N/kg (1,350 g) for 10 min in a Hettich Rotanta/AP centrifuge (i.e., 2,800 rpm) at RT. After gentle resuspension of the pellet in the same volume of fresh Watson buffer containing 5 ng/mL PGI2, the suspension is centrifuged at 1,350 g (2,800 rpm) for 10 min at RT again. The final platelet pellet is resuspended in Watson buffer to give approx. 400,000±50,000 platelets/[…]. • 3. Watson buffer:
134 mM NaCl, 2.9 mM KCl, 12 mM NaHCO3, 0.34 mM Na2HPO4.2H2O, 1 mM MgCl2.6H2O, 5 mM Glucose and 5 mM HEPES in MQ H2O. The pH is adjusted to 7.4 with 1 M NaOH. • 4. Prostaglandin I2 (Sigma, P6188 powder):
The PGI2 stock solution of 1 mg/mL in 1 M KOH is stored in aliquots of 100 μL at −20° C. Immediately before use, a solution of 5 μg/mL in ice-cold 0.9% NaCl in MQ H2O is prepared. • 5. Human Fibrinogen (Kordia/ERL, art nr: FIB 2 powder):
0.5 g fibrinogen powder is dissolved in 50 mL MQ H2O under vacuum. This stock solution is stored in aliquots of 1 mL at −20° C. Before use, a solution of 0.5 mg/mL in saline is prepared.
Before use, a solution of 50 μM TRAP in 0.9% NaCl in MQ H2O is prepared. For each test, a fresh solution is made.
• 1. Sysmex cell counter model KX-21 • 2. Labsystems iEMS reader MF with a 405 nm filter, an orbital shaker set at 1,000 rpm and a constant temperature of 37° C. Absorptions are measured with the Labsystems iEMS program. • 3. Blood collection system 600 mL with needle, art nr P4203 (NPBI) • 4. 96 wells micro plates (Greiner Labortechnik) flat-bottom
Procedure: The WPL concentration is counted in a Sysmex blood cell counter and the suspension is diluted with Watson buffer to obtain a concentration of 400,000±50,000 plt/μL. Before use, WPL is allowed to stabilize at room temperature for at least 20 min but not longer than 3-4 hours.
TRAP-induced aggregation: 150 μL WPL is pipetted into a well of a micro plate. 15 μL test compound or vehicle and 15 μL fibrinogen solution is added and the micro plate is placed in the micro plate reader at 37° C. Then, the optical density (OD) is measured at 405 nm and after shaking for 2 min in the reader, the OD405 is measured again to verify the stability of the platelets (absence of spontaneous platelet aggregation). 20 μL of 50 μM TRAP is added and the OD405 is kinetically measured every min for 14 min at 405 nm. Between two measurements, the plate is shaking for 40 seconds at 1,000 rpm (FIG. 1). For determination of the IC50 of a test compound, each test compound is investigated in at least 2 experiments using WPL from different volunteers.
Evaluation of response: The mean OD of each concentration (including vehicle) is calculated at t=0 min and t=10 min. The percentage inhibition at each concentration is calculated using the formula: […]

A word on the IC50: it is the concentration at which inhibition is half-maximal. Take “Methyl O-2,3-di-O-methyl-4-O-<<12-N-<N-(3-keto-benzenesulfonyl)-4-O-{4-(4-piperidinyl)-butyl}-L-tyrosine>-12-aza-3,6,9-trioxa-dodecyl>>-6-O-sulfo-alpha-D-glucopyranosyl-(1->4)-O-2,3-di-O-methyl-beta-D-glucopyranuronosyl-(1->4)-O-2,3,6-tri-O-sulfo-alpha-D-glucopyranosyl-(1->4)-O-2,3-di-O-methyl-alpha-L-idopyranuronosyl-(1>4)-3-O-methyl-2,6-di-O-sulfo-alpha-D-glucopyranoside octakis sodium salt [XIV]”: the half-maximal inhibitory concentration (IC50) is 80 nM.

(Values after US7576071B2, “Antithrombotic compound” (sanofi-aventis, priority 2004, dated 2009).)
